This is an account of results in patent publication US11008313B2, “Substituted 1-methyl-1,2,3,4-tetrahydroisoquinoline molecules as PCSK9 allosteric binders” (Merck Sharp & Dohme Corp., priority 2016, dated 2021).

What is called ΔTm is the change in melting temperature against a reference sample.

Assay [1] addresses T1, PCSK9 (Homo sapiens, UniProt Q8NBP7). Kind of assay: Differential scanning calorimetry (DSC) assay, direct binding / thermal stabilization of PCSK9. The note with it: Tm(with compound)−Tm(no compound); 2 μM PCSK9, 300 μM test compound. On the procedure:
Differential scanning calorimetry (DSC) was used as a biophysical method to confirm direct binding to PCSK9. A solution containing 2 μM PCSK9 with or without 300 μM test compound in 25 mM HEPES (pH 7.5)/150 mM NaCl/1 mM CaCl2/3.75% DMSO was transferred to the sample cell of the DSC instrument, while buffer alone was placed in the reference cell. Both cells were heated at a constant rate (200° C./hr) from 20-80° C. while recording the excess heat capacity of the sample cell relative to the reference cell. Each thermogram was analyzed to provide the melting temperature (Tm) of the protein.
The higher the temperature shift generally, the higher the affinity.
For orientation: In DSC, transitions show as peaks or steps in heat flow.

In assay [2] the target is T1, PCSK9. Nature of the assay: Fluorescence polarization competition binding assay (probe: compound of Example 57). The note with it: 2 μM PCSK9, 50 nM compound of Example 57 as probe, overnight incubation; read-out: FP IC. The method, then:
Relative compound affinities were determined using a competition binding assay with a fluorescence polarization format. Solution (49 μL) containing 2 μM PCSK9 and 50 nM compound of Example 57 in 20 mM HEPES (pH 7.5)/150 mM NaCl/1 mM CaCl2/0.005% P-20 was dispensed to wells of a 384-well black non-binding microplate before the addition of 1 μL of test compound or DMSO. After mixing, the plate was centrifuged and sealed for overnight incubation in the dark. The anisotropy signal was read using a fluorescence polarization protocol on a Perkin-Elmer Envision plate reader. The % inhibition was determined relative to the window defined by the DMSO control wells and wells containing 50 nM probe in the absence of PCSK9.

Each structure is given as a SMILES string. pIC50: −log10 of the molar value.

T1 sequence (Q8NBP7 153-692): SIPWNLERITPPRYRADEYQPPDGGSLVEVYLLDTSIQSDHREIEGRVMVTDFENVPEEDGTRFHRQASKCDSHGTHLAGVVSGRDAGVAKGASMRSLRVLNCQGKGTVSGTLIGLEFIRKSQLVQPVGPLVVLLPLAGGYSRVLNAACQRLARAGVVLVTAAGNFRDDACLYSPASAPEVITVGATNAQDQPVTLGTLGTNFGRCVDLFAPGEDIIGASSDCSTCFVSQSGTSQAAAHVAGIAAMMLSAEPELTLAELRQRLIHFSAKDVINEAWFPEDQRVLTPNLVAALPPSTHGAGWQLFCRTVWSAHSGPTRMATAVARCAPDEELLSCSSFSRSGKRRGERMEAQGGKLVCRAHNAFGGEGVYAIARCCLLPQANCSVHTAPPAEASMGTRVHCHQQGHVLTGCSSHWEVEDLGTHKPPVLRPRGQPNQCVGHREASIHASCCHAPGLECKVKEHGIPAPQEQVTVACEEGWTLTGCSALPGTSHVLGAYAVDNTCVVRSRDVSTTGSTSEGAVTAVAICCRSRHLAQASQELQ

On to `COc1cc2c(cc1Oc1ccc(-c3ccc(C(=O)O)cc3)cc1)[C@@](C)(CC(=O)Nc1nccs1)NCC2` [Example 26, (R)-4′-((6-methoxy-1-methyl-1-(2-oxo-2-(thiazol-2-ylamino)ethyl)-1,2,3,4-tetrahydroisoquinolin-7-yl)oxy)-[1,1′-biphenyl]-4-carboxylic acid], for which the ΔTm at 300 µM on PCSK9 [1] was 5.75 °C. The pIC50 at PCSK9 [2] was 6.41.
Regarding `C[C@]1(CC(=O)Nc2nccs2)NCCc2cc(OCC3CCCCO3)c(Oc3ccc(C(=O)O)c(F)c3)cc21` (stereo partly drawn) [Example 66, 2-fluoro-4-(((1R)-1-methyl-1-(2-oxo-2-(thiazol-2-ylamino)ethyl)-6-((tetrahydro-2H-pyran-2-yl)methoxy)-1,2,3,4-tetrahydroisoquinolin-7-yl)oxy)benzoic acid], the “DSC ΔTm” value on PCSK9 [1] was 9.14 °C. For the same compound, at PCSK9 [2], the pIC50 is 6.40.
As for `COc1cc2c(cc1Oc1ccc(-c3ccc(CC(=O)O)cc3)c(F)c1)[C@@](C)(CC(=O)Nc1nccs1)NCC2` [Example 31, (R)-2-(2′-fluoro-4′-((6-methoxy-1-methyl-1-(2-oxo-2-(thiazol-2-ylamino)ethyl)-1,2,3,4-tetrahydroisoquinolin-7-yl)oxy)-[1,1′-biphenyl]-4-yl)acetic acid], the ΔTm at 300 µM at PCSK9 [1] was 5.84 °C. Also, the pIC50 on PCSK9 [2] is 6.28.
For `Cn1nccc1NC(=O)c1ccc(Oc2cc3c(cc2OCC2CCCCO2)CCN[C@]3(C)CC(=O)Nc2nccs2)cc1F` (stereo partly drawn) [Example 73, 2-fluoro-4-(((1R)-1-methyl-1-(2-oxo-2-(thiazol-2-ylamino)ethyl)-6-((tetrahydro-2H-pyran-2-yl)methoxy)-1,2,3,4-tetrahydroisoquinolin-7-yl)oxy)-N-(1-methyl-1H-pyrazol-5-yl)benzamide] the same measures were 6.66 °C and 6.20.
Turning to `C[C@]1(CC(=O)Nc2nccs2)NCCc2cc(OCc3ncccc3F)c(Oc3cccc(F)c3)cc21` [Example 84, (R)-2-(7-(3-fluorophenoxy)-6-((3-fluoropyridin-2-yl)methoxy)-1-methyl-1,2,3,4-tetrahydroisoquinolin-1-yl)-N-(thiazol-2-yl)acetamide], the ΔTm at 300 µM at PCSK9 [1] turned out to be 6.32 °C. On PCSK9 [2], the pIC50 was 6.03.
As to `C[C@]1(CC(=O)Nc2nccs2)NCCc2cc(OCCn3cc(C(O)C(N)C(=O)O)nn3)c(Oc3ccc(C(=O)O)c(F)c3)cc21` (stereo partly drawn) [Example 53, 4-(((1R)-6-(2-(4-(2-amino-2-carboxy-1-hydroxyethyl)-1H-1,2,3-triazol-1-yl)ethoxy)-1-methyl-1-(2-oxo-2-(thiazol-2-ylamino)ethyl)-1,2,3,4-tetrahydroisoquinolin-7-yl)oxy)-2-fluorobenzoic acid], the ΔTm at 300 µM at PCSK9 [1] amounted to 6.96 °C. For the same compound, the pIC50 at PCSK9 [2] was 6.08.
Regarding `Cc1cn(-c2ccc(-c3cn(CCOc4cc5c(cc4Oc4ccc(C(=O)O)c(F)c4)[C@@](C)(CC(=O)Nc4nccs4)NCC5)nn3)cc2C)cn1` [Example 40, (R)-2-fluoro-4-((1-methyl-6-(2-(4-(3-methyl-4-(4-methyl-1H-imidazol-1-yl)phenyl)-1H-1,2,3-triazol-1-yl)ethoxy)-1-(2-oxo-2-(thiazol-2-ylamino)ethyl)-1,2,3,4-tetrahydroisoquinolin-7-yl)oxy)benzoic acid], the ΔTm at 300 µM on PCSK9 [1] stood at 6.75 °C. The pIC50 on PCSK9 [2] was 6.52.
Regarding `C[C@]1(CC(=O)Nc2nccs2)NCCc2cc(OCC3CCCCO3)c(Oc3ccc(C(=O)Nc4n[nH]c5ncccc45)c(F)c3)cc21` (stereo partly drawn) [Example 78, 2-fluoro-4-(((1R)-1-methyl-1-(2-oxo-2-(thiazol-2-ylamino)ethyl)-6-((tetrahydro-2H-pyran-2-yl)methoxy)-1,2,3,4-tetrahydroisoquinolin-7-yl)oxy)-N-(1H-pyrazolo[3,4-b]pyridin-3-yl)benzamide], the “DSC ΔTm” value at PCSK9 [1] was 6.67 °C. In addition, the pIC50 on PCSK9 [2] is 6.22.
On to `C[C@]1(CC(=O)Nc2nccs2)NCCc2cc(OCCn3cc(COc4ccccc4)nn3)c(Oc3ccc(C(=O)O)c(F)c3)cc21` [Example 47, (R)-2-fluoro-4-((1-methyl-1-(2-oxo-2-(thiazol-2-ylamino)ethyl)-6-(2-(4-(phenoxymethyl)-1H-1,2,3-triazol-1-yl)ethoxy)-1,2,3,4-tetrahydroisoquinolin-7-yl)oxy)benzoic acid], for which the ΔTm at 300 µM at PCSK9 [1] was found to be 6.27 °C. For the same compound, on PCSK9 [2], the pIC50 was 6.19.
In the same order, the values of `COc1cc2c(cc1Oc1ccc(-c3ccc(CC(=O)O)cc3)cc1)[C@@](C)(CC(=O)Nc1nccs1)NCC2` [Example 36, (R)-2-(4′-((6-methoxy-1-methyl-1-(2-oxo-2-(thiazol-2-ylamino)ethyl)-1,2,3,4-tetrahydroisoquinolin-7-yl)oxy)-[1,1′-biphenyl]-4-yl)acetic acid] are 5.56 °C and 6.12.
In the case of `C[C@]1(CC(=O)Nc2nccs2)NCCc2cc(OCC3CCCCO3)c(Oc3ccc(C(=O)O)c(F)c3)cc21` (stereo partly drawn) [Example 62, 2-fluoro-4-(((1R)-1-methyl-1-(2-oxo-2-(thiazol-2-ylamino)ethyl)-6-((tetrahydro-2H-pyran-2-yl)methoxy)-1,2,3,4-tetrahydroisoquinolin-7-yl)oxy)benzoic acid], the ΔTm at 300 µM at PCSK9 [1] was found to be 6.03 °C. In addition, the pIC50 on PCSK9 [2] is 6.28.
For `C[C@]1(CC(=O)Nc2nccs2)NCCc2cc(OCc3ccccn3)c(Oc3ccc(C(=O)O)c(F)c3)cc21` [Example 65, (R)-2-fluoro-4-((1-methyl-1-(2-oxo-2-(thiazol-2-ylamino)ethyl)-6-(pyridin-2-ylmethoxy)-1,2,3,4-tetrahydroisoquinolin-7-yl)oxy)benzoic acid], the ΔTm at 300 µM at PCSK9 [1] is 7.31 °C. In addition, at PCSK9 [2], the pIC50 was 6.52.
For `COC(=O)c1ccc(Oc2cc3c(cc2OCC2CCCCO2)CCN[C@]3(C)CC(=O)Nc2nccs2)cc1F` (stereo partly drawn) [Example 72, methyl 2-fluoro-4-(((1R)-1-methyl-1-(2-oxo-2-(thiazol-2-ylamino)ethyl)-6-((tetrahydro-2H-pyran-2-yl)methoxy)-1,2,3,4-tetrahydroisoquinolin-7-yl)oxy)benzoate], the ΔTm at 300 µM on PCSK9 [1] is 6.15 °C. Further, the pIC50 at PCSK9 [2] is 6.17.
For `COc1cc2c(cc1Oc1cncc(F)c1)[C@@](C)(CC(=O)Nc1nccs1)NCC2` [Example 8, (R)-2-(7-((5-fluoropyridin-3-yl)oxy)-6-methoxy-1-methyl-1,2,3,4-tetrahydroisoquinolin-1-yl)-N-(thiazol-2-yl)acetamide], the ΔTm at 300 µM on PCSK9 [1] is 5.44 °C. Besides, the pIC50 at PCSK9 [2] was 6.12.
In the same order, the values of `COc1cc2c3cc1Oc1ccc(C(=O)O)c(c1)OC/C=C\CCc1csc(n1)NC(=O)C[C@@]3(C)NCC2` [Example 2, (R,72Z)-36-methoxy-31-methyl-5-oxo-31,32,33,34-tetrahydro-2,13-dioxa-6-aza-7(2,4)-thiazola-3(7,1)-isoquinolina-1(1,3)-benzenacyclotridecaphan-10-ene-14-carboxylic acid] are 6.21 °C and 5.91.
For `C[C@]1(CC(=O)Nc2nccs2)NCCc2cc(OCCn3cc(CN4CCNC4=O)nn3)c(Oc3ccc(C(=O)O)c(F)c3)cc21` [Example 42, (R)-2-fluoro-4-((1-methyl-1-(2-oxo-2-(thiazol-2-ylamino)ethyl)-6-(2-(4-((2-oxoimidazolidin-1-yl)methyl)-1H-1,2,3-triazol-1-yl)ethoxy)-1,2,3,4-tetrahydroisoquinolin-7-yl)oxy)benzoic acid], the thermal shift (ΔTm) at 300 µM on PCSK9 [1] is 5.97 °C. Also, the pIC50 on PCSK9 [2] was 6.41.
For `COc1cc2c(cc1Oc1ccc(C(=O)O)c(F)c1)[C@@](C)(CC(=O)Nc1nccs1)NCC2` [Example 4, (R)-2-fluoro-4-((6-methoxy-1-methyl-1-(2-oxo-2-(thiazol-2-ylamino)ethyl)-1,2,3,4-tetrahydroisoquinolin-7-yl)oxy)benzoic acid], the ΔTm at 300 µM on PCSK9 [1] is 7.06 °C. In addition, the pIC50 at PCSK9 [2] is 6.31.
As to `C[C@]1(CC(=O)Nc2nccs2)NCCc2cc(OCC3CCCO3)c(Oc3ccc(-c4c[nH]c5c(C(=O)O)cccc45)c(F)c3)cc21` (stereo partly drawn) [Example 20, 3-(2-fluoro-4-(((1R)-1-methyl-1-(2-oxo-2-(thiazol-2-ylamino)ethyl)-6-((tetrahydrofuran-2-yl)methoxy)-1,2,3,4-tetrahydroisoquinolin-7-yl)oxy)phenyl)-1H-indole-7-carboxylic acid], on PCSK9 [1], the ΔTm at 300 µM is 8.56 °C. Moreover, the pIC50 at PCSK9 [2] is 6.72.
For `C[C@]1(CC(=O)Nc2nccs2)NCCc2cc(OCCn3cc(-c4cnccn4)nn3)c(Oc3ccc(C(=O)O)c(F)c3)cc21` [Example 49, (R)-2-fluoro-4-((1-methyl-1-(2-oxo-2-(thiazol-2-ylamino)ethyl)-6-(2-(4-(pyrazin-2-yl)-1H-1,2,3-triazol-1-yl)ethoxy)-1,2,3,4-tetrahydroisoquinolin-7-yl)oxy)benzoic acid] the same measures were 6.29 °C and 6.17.
